# In patent US5663177A (SmithKline Beecham Corporation, priority 1995, dated 1997):
# Key:
# [1] = tested on: wild-type (AUX-B 1) Chinese Hamster ovary cells; test: CHO Microtiter Cytotoxicity Assay (XTT), wild-type (AUX-B1); format: cell-based; conditions: Cricetulus griseus, AuxB1, 72 h, 3 days, read-out: Cytotoxicity IC50, Wildtype (AUX-B1)
# Method: (§1) The in vitro assays used to test the compound of the present invention for antitumor activity are well-known. A generalized description of these assays follows.
# (§2) Chinese Hamster ovary cells are grown in Alpha MEM Medium with L-glutamine and nucleosides and containing 10% fetal bovine serum and 100 units per mL penicillin-streptomycin in 75 cm^2 canted neck tissue culture flasks. They are harvested from these flasks using 0.5% trypsin. Microtiter plates (96-well, sterile, flat bottom) (Corning 25860) are seeded with 1.6×10^3 wild-type (AUX-B 1) Chinese Hamster ovary cells per well or 2×10^3 multidrug resistant (CH^R C5) Chinese Hamster ovary cells per well. The plates are incubated at 37° C., 5% CO2 overnight to allow the cells to attach. The outside wells of each plate are not used, due to evaporation during the incubation time. They are filled with medium and used as blanks. The next day, the medium is aspirated from the wells and 180 μL of fresh medium is added to each well. Compounds are diluted from stock solution in DMSO into fresh medium to a 10X concentration containing 2% DMSO. Twenty μL of this is then added to the 180 μL, of fresh medium in the wells. The plates are then incubated for another 3 days at 37° C., 5% CO2. Eight mg of XTT (SIGMA X-4251) is dissolved in 100 μL of DMSO which is then added to 3.9 mL of phosphate buffered saline without cations (PBS). Phenazine methosulfate (SIGMA P-9625) is dissolved in PBS to a concentration of 3 mg/mL and 20 μL of this is added to the XTT solution. Fifty μL of this XTT/PMS solution is added to each well of the microliter plate and the plates are incubated for 90 minutes at 37° C., 5% CO2 (until the OD450 ~1.0). The plate is then read on a UV Max plate reader, using wells without cells (i.e., containing only 200 μL of medium and 50 μL of XTT/PMS solution) as a background control.
# [2] = tested on: multidrug resistant (CH^R C5) Chinese Hamster ovary cells; test: CHO Microtiter Cytotoxicity Assay (XTT), multidrug resistant (CH^R C5); format: cell-based; conditions: Cricetulus griseus, CHRC5, 72 h, 3 days
# Method: as §1, §2
# P388 [3] = test: Cytotoxicity IC50, P388; format: cell-based; conditions: Mus musculus
# topoisomerase I = conditions: background statement; cited from earlier work
# topoisomerase II = conditions: background statement; cited from earlier work
# [4] = background statement; cited from earlier work
# P388 [5] = test: Efficacy in mouse tumor model P388 (in vivo)
# Method: The cytotoxicity and efficacy of the compound of the present invention was also tested in vivo using the well-known P388 mouse tumor model.
# [6] = tested on: solid tumor cancers, particularly ovarian cancer and non-small cell lung carcinoma; conditions: humans; cited from earlier work
# [7] = background statement; cited from earlier work; remark: listed apart in the source
SMILES,IC50 [1] [nM],IC50 [2] [nM],IC50 (P388 [3]) [nM],water solubility [4],other results
CC[C@@]1(O)C(=O)OCc2c1cc1n(c2=O)Cc2cc3ccccc3nc2-1 [Camptothecin],15,35,12,water-insoluble,inhibition of topoisomerase I (topoisomerase I): known to inhibit topoisomerase I; effect on topoisomerase II (topoisomerase II): no effect on topoisomerase II
"CC[C@@]1(O)C(=O)OCc2c1cc1n(c2=O)Cc2cc3c(CN(C)C)c(O)ccc3nc2-1 [Topotecan, 9-dimethylaminomethyl-10-hydroxycamptothecin]",790,2300,30,,"Efficacy in Mouse Tumor Models, % Inc. in Lifespan, P388 (P388 [5]; dose 14.4 mg/kg, route not given): 156%; efficacy in clinical tests [6]: demonstrated efficacy against several solid tumor cancers, particularly ovarian cancer and non-small cell lung carcinoma in humans"
"CC[C@@]1(O)C(=O)OCc2c1cc1n(c2=O)Cc2cc3c(N)cccc3nc2-1 [9-aminocamptothecin, (S)-10-amino-4-ethyl-4-hydroxy-1H-pyrano[3',4':6,7]indolizino[1,2-b]quinoline-3, 14(4H,12H)-dione]",,,,limited water solubility,
"CC[C@@]1(O)C(=O)OCc2c1cc1n(c2=O)Cc2c-1nc1ccc(O)c3c1c2CN(C)C3 [Formula I, S-9-ethyl-2,3-dihydro-4,9-dihydroxy-2-methyl-1H,12H-benzo[ij]pyrano[3', 4':6,7]indolizino[1,2-c][2,6]naphthyridine-10,13(H,15H)-dione]",52,840,24,,"Efficacy in Mouse Tumor Models, % Inc. in Lifespan, P388 (P388 [5]; dose 40 mg/kg ip): 111%; biological activity (cytotoxicity and efficacy in mouse tumor models) versus topotecan (P388 [5]; summary of Table I): comparable to topotecan"
"CCc1c2c(nc3ccc(OC(=O)N4CCC(N5CCCCC5)CC4)cc13)-c1cc3c(c(=O)n1C2)COC(=O)[C@]3(O)CC [CPT-11, (S)-[1,4'-bipiperidine]-1'-carboxylic acid,4,11-diethyl-3,4,12,14-tetrahydro-4-hydroxy-3, 14-dioxo-1H-pyrano[3',4':6,7]indolizino[1,2-b]quinolin-9-yl]",,,,,toxicity [7]: adverse toxicity profile
